The values below come from ChEMBL document CHEMBL1828590 (J Med Chem, 2011).

Series [1] deals with HCT-116. Description: Antitumor activity against human HCT116 cells xenografted in athymic nu/nu Harlan mouse assessed as tumor growth inhibition at 50 mg/kg, po qd for 21 days measured on day 22. As to conditions: HCT-116, po, read-out: TGI.
Series [2] deals with HCT-116. As to the kind of experiment: Antitumor activity against human HCT116 cells xenografted in athymic nu/nu Harlan mouse assessed as tumor growth inhibition at 200 mg/kg, po qd for 7 days measured on day 22. In kind it is functional. To be noted: read-out: TGI. For orientation: In xenograft studies the graft and the host belong to different species.
Series [3] in a line: Apparent permeability from apical to basolateral side of human Caco2 cells. The series is classed as ADME, cell-based. To be noted: Caco-2. A general note: Caco-2 cells form a polarised layer with tight junctions and transporters.
Series [4] in a line: Half life in human liver microsomes. In kind it is ADME, Microsome. (Liver microsomes are vesicles of endoplasmic reticulum, rich in cytochrome P450 enzymes.)
Series [5] relates to Mus musculus. As to the kind of experiment: Toxicity in athymic nu/nu Harlan mouse xenografted with human HCT116 cells assessed as body weight loss at 50 mg/kg, po QD for 21 days measured on day 5. To be noted: in vivo, 504 h.
Series [6] can be described thus: Half life in dog liver microsomes. The series is classed as ADME, Canis lupus familiaris, Microsome.
Series [7] can be described thus: Apparent permeability from basolateral to apical side of human Caco2 cells. In kind it is ADME, cell-based. To be noted: Caco-2.
A short description of series [8]: Half life in rat liver microsomes. The series is classed as ADME, Microsome.
Series [9] concerns HCT-116. Description: Antitumor activity against human HCT116 cells xenografted in athymic nu/nu Harlan mouse assessed as tumor growth inhibition at 100 mg/kg, po qd measured on day 22. To be noted: HCT-116, po, read-out: TGI.
For series [10], the system named is Mus musculus. As to the kind of experiment: Toxicity in athymic nu/nu Harlan mouse xenografted with human HCT116 cells assessed as body weight loss at 100 mg/kg, po QD for 7 days measured on day 5. The series is classed as organism-based, HCT-116. More on the design: dose 100 mg/kg, route oral. To be noted: in vivo, 168 h.
The nature of series [11]: Half life in mouse liver microsomes. The series is classed as ADME, Microsome. To be noted: liver microsomes.
Series [12] deals with Mus musculus. As to the kind of experiment: Toxicity in athymic nu/nu Harlan mouse xenografted with human HCT116 cells assessed as mouse survival at 100 mg/kg, po QD for 7 days measured on day 22. In kind it is organism-based, HCT-116. Set-up: dose 100 mg/kg, route oral. To be noted: in vivo, 168 h.
Series [13] in a line: Kinetic solubility of the compound at pH 7 with […] DMSO. In kind it is physicochemical. As to conditions: buffer, read-out: Kinetic_solubility.
For series [14], the system named is Mus musculus. Description: Toxicity in athymic nu/nu Harlan mouse xenografted with human HCT116 cells assessed as mouse survival at 50 mg/kg, po QD for 7 days measured on day 22. In kind it is organism-based, HCT-116. Set-up: dose 50 mg/kg, route oral. As to conditions: in vivo, 168 h.
Series [15] relates to Mus musculus. Description: Toxicity in athymic nu/nu Harlan mouse xenografted with human HCT116 cells assessed as body weight loss at 200 mg/kg, po QD for 7 days measured on day 5. As to conditions: in vivo, 168 h.
The test system of series [16] is A2780. Description: Antiproliferative activity against human A2780 cells after 96 hrs by celltiter 96 assay. The series is classed as functional, cell-based. To be noted: A2780, 96 h.
Series [17] has as its system HCT-116. As to the kind of experiment: Antitumor activity against human HCT116 cells xenografted in athymic nu/nu Harlan mouse assessed as tumor growth inhibition at 200 mg/kg, po qd for 21 days measured on day 22. The series is classed as functional. To be noted: read-out: TGI.
Series [18] relates to HCT-116. As to the kind of experiment: Antitumor activity against human HCT116 cells xenografted in athymic nu/nu Harlan mouse assessed as tumor growth inhibition at 100 mg/kg, po qd for 21 days measured on day 22. As to conditions: read-out: TGI. In kind it is functional.
For series [19], the system named is Mus musculus. As to the kind of experiment: Toxicity in athymic nu/nu Harlan mouse xenografted with human HCT116 cells assessed as mouse survival at 200 mg/kg, po QD for 21 days measured on day 22. In kind it is organism-based, HCT-116. Set-up: dose 200 mg/kg, route oral. As to conditions: in vivo, 504 h.
The target of series [20] is Histone deacetylase 4 (Homo sapiens, UniProt P56524).
Chain of Histone deacetylase 4 (P56524 whole entry): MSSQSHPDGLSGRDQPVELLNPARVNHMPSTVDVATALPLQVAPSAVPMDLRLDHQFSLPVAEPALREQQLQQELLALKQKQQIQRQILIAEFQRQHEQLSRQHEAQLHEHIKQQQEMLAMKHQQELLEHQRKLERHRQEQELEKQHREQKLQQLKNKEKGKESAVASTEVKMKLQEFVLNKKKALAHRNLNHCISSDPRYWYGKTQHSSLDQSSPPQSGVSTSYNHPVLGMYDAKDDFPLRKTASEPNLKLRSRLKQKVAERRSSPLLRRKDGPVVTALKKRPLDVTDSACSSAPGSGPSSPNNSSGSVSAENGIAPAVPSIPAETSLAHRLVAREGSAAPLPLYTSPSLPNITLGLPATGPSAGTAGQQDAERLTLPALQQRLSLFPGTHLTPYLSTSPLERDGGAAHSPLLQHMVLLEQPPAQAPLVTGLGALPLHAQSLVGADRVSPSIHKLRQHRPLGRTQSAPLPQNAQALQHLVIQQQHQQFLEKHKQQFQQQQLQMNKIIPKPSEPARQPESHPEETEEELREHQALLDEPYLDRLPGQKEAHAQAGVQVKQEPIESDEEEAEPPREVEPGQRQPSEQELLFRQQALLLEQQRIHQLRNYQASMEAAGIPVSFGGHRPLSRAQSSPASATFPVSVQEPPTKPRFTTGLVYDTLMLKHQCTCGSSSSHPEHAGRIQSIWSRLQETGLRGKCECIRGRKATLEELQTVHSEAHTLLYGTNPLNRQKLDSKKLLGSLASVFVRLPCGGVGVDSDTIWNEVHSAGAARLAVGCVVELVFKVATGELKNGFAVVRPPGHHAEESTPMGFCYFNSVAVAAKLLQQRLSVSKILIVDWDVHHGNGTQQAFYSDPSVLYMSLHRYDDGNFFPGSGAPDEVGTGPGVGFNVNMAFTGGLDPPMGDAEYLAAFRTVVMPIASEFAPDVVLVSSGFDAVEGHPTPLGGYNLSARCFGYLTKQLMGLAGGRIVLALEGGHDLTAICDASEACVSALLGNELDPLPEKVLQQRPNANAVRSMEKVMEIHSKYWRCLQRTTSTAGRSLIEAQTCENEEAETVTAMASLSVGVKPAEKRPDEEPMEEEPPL
Description: Competitive inhibition of HDAC4 using KI-104 as substrate by fluorescence assay
For series [21], the target named is T1, Polyamine deacetylase HDAC10 (Homo sapiens, UniProt Q969S8).
T1 sequence (Q969S8 whole entry): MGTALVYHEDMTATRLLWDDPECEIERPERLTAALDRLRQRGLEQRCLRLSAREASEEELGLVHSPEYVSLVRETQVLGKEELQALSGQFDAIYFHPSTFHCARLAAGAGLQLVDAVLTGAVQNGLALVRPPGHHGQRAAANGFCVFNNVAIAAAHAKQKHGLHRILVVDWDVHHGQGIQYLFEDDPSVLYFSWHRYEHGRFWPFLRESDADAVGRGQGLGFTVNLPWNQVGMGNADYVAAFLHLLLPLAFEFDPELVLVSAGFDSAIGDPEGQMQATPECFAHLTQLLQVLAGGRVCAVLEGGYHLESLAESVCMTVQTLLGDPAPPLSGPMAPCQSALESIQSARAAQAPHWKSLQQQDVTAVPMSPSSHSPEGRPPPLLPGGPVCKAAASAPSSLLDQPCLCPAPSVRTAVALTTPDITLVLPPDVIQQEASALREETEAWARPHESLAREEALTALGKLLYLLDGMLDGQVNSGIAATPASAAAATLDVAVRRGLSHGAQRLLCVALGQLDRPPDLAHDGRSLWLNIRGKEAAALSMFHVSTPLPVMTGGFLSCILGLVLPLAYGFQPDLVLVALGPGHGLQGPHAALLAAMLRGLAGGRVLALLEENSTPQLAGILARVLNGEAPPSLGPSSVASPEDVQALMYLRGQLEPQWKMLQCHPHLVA
Description: Competitive inhibition of HDAC10 using KI-104 as substrate by fluorescence assay

The subject of series [22] is COLO 205. As to the kind of experiment: Antiproliferative activity against human COLO205 cells after 96 hrs by celltiter 96 assay. To be noted: COLO 205, 96 h. The series is classed as functional, cell-based.
The nature of series [23]: Oral bioavailability in nude BALB/c mouse at 50 mg/kg. In kind it is ADME, organism-based. To be noted: in vivo.
Series [24] deals with Mus musculus. Description: Toxicity in athymic nu/nu Harlan mouse xenografted with human HCT116 cells assessed as mouse survival at 50 mg/kg, po QD for 21 days measured on day 22. In kind it is organism-based, HCT-116. More on the design: dose 50 mg/kg, route oral. As to conditions: in vivo, 504 h.
In series [25] the test system is Mus musculus. Description: Toxicity in athymic nu/nu Harlan mouse xenografted with human HCT116 cells assessed as body weight loss at 200 mg/kg, po QD for 7 days measured on day 5. Set-up: dose 200 mg/kg, route oral. The series is classed as organism-based, HCT-116. As to conditions: in vivo, 168 h.
The subject of series [26] is HCT-116. Description: Antitumor activity against human HCT116 cells xenografted in nude BALB/c mouse assessed as tumor growth inhibition at 200 mg/kg, po qd for 21 days measured on day 15. In kind it is functional. To be noted: read-out: TGI.
Series [27] concerns the target T2, Protein deacetylase HDAC6 (Homo sapiens, UniProt Q9UBN7).
T2 sequence (Q9UBN7 whole entry): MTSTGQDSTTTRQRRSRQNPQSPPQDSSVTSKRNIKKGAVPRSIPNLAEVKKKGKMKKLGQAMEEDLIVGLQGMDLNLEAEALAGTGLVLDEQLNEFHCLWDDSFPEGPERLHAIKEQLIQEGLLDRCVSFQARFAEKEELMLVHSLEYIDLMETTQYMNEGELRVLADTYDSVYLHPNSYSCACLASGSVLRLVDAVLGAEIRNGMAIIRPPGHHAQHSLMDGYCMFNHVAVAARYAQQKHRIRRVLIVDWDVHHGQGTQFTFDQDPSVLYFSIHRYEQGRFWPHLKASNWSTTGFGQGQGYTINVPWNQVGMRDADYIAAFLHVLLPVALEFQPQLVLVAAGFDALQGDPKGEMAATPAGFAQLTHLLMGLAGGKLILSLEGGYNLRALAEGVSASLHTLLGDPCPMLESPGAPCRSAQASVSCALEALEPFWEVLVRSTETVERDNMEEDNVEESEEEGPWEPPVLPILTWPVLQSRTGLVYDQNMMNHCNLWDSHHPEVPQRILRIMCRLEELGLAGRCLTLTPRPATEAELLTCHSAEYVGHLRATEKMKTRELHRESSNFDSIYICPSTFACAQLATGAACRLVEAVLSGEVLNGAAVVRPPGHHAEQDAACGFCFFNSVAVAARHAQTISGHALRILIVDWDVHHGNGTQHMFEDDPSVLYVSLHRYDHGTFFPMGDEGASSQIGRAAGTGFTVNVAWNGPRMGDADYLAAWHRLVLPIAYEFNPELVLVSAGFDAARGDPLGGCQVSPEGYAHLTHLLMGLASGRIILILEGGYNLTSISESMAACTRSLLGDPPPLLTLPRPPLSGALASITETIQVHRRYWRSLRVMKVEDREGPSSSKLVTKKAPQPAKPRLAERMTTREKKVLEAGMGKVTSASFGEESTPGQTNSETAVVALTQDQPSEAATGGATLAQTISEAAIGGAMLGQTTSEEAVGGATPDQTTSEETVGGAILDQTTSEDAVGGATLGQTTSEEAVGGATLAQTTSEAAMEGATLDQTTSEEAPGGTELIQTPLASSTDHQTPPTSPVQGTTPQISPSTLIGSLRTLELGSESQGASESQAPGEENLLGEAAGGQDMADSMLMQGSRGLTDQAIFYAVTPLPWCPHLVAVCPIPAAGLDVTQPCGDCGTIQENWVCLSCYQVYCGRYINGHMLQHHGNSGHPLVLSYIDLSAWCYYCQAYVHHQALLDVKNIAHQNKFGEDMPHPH
Description: Competitive inhibition of HDAC6 using KI-104 as substrate by fluorescence assay

The subject of series [28] is HCT-116. Description: Antitumor activity against human HCT116 cells xenografted in athymic nu/nu Harlan mouse assessed as tumor growth inhibition at 50 mg/kg, po qd for 21 days measured on day 22. In kind it is functional. To be noted: read-out: TGI.
The test system of series [29] is Mus musculus. Description: Toxicity in athymic nu/nu Harlan mouse xenografted with human HCT116 cells assessed as mouse survival at 100 mg/kg, po QD for 21 days measured on day 22. Set-up: dose 100 mg/kg, route oral. As to conditions: in vivo, 504 h. In kind it is organism-based, HCT-116.
Series [30] deals with HCT-116. As to the kind of experiment: Antitumor activity against human HCT116 cells xenografted in athymic nude nu/nu CD1 mouse assessed as tumor growth inhibition at 40 mg/kg, ip qd for 7 days measured on day 10. In kind it is functional. As to conditions: HCT-116, ip, route intraperitoneal, read-out: TGI.
Series [31] deals with HCT-116. As to the kind of experiment: Antiproliferative activity against human HCT116 cells after 96 hrs by celltiter 96 assay. The series is classed as functional, cell-based. As to conditions: HCT-116, 96 h.
For series [32], the system named is PC-3. Description: Antiproliferative activity against human PC3 cells after 96 hrs by celltiter 96 assay. In kind it is functional, cell-based. As to conditions: PC-3, 96 h.

In general, Papp A→B refers to the apparent permeability from the apical to the basolateral side of a cell layer. The half-life is the time needed for the level to fall by half in the phase considered. The low end stands for fast loss, the high end for slow loss. Usually Papp B→A stands for how fast a substance crosses the layer from the basolateral side. As to `CCCCCCc1nc2cc(/C=C/C(=O)NO)ccc2n1CCN(C)C.Cl.Cl`, the inhibition in vivo at 50 mg/kg in series [1] amounted to 17%. Also, in [2], the inhibition in vivo at 200 mg/kg is 53%. The Papp A→B in series [3] came out at 9.59 ×10⁻⁶ cm/s. In addition, the half-life in series [4] is greater than 60 min; in series [6] it was 10 min; in series [8], 10 min; in series [11], 16 min. Besides, the Activity in series [5] is 1.9%; in series [10], 4.9%; in series [12] it was “Non-toxic”; in series [14] it was “Non-toxic”; in series [15] it was 18%. Moreover, in series [7], the Papp B→A amounted to 26 ×10⁻⁶ cm/s. Besides, the inhibition in vivo at 100 mg/kg in series [9] worked out at 50%. For the same compound, in series [13], the solubility kinetic was greater than 200 µM.

One may read the IC50 as the concentration at which inhibition is half-maximal. A low value points to greater potency in that assay. The term Ki denotes the dissociation constant of the complex between target and ligand, obtained from inhibition or displacement. A low value points to tighter binding. Broadly, the bioavailability is the share of a dose that reaches the circulation, judged against a reference dose that is usually intravenous. The low end stands for poor availability, the high end for good availability. As to `O=C(/C=C/c1cccc(S(=O)(=O)Nc2ccccc2)c1)NO` [BELINOSTAT], the IC50 in series [16] turned out to be 670 nM; in [22], 700 nM; in [31] it was 600 nM; in series [32], 450 nM. The inhibition in vivo at 200 mg/kg in series [17] was 29%; in series [26] it was 42%. Besides, the inhibition in vivo at 100 mg/kg in series [18] came out at 26%. The Activity entry in series [19] is on record as “Non-toxic”; in [24], “Non-toxic”; in series [25], 3.9%; in series [29], “Non-toxic”. In addition, the Ki in series [20] was found to be 15 nM; in series [21] it was 59 nM; in series [27], 10 nM. The compound further yielded a bioavailability in [23] of 6.7%. Further, the inhibition in vivo at 50 mg/kg in series [28] was 6%. Further, in [30], the inhibition in vivo at 40 mg/kg was determined as 50%.
